Counter-ions that a name gives are not always drawn.
How the values were obtained:
[1] = test system: Mouse preadipocyte strain 3T3-L1; assay: Inhibition of differentiation as an indication of acetic acid uptake; assay type: cell-based; details: Mus musculus, 3T3-L1, 0.1 μM test substance, control (0.01% dimethylsulfoxide) = 100%, read-out: Rate of Uptake (%) of [2-14C] acetic acid
Protocol: As the basal medium, Dulbecco's modified Eagle's (DEM) medium (NISSUI PHARMACEUTICAL CO., LTD) was used. […] All culturing in the present Test Example was carried out in a CO2 incubator at 37° C. and 10% CO2 concentration.
The successively cultured 3T3-L1 cells were inoculated in a Biocoat Collagen I 96-well white/clear plate (Becton Dickinson and Co.) at a concentration of 4,900 cells/well, and were cultured in the basal medium containing added 10% (v/v) inactivated bovine fetal serum (FBS) for 10 days.
The medium was replaced with a differentiation-inducing medium in which inactivated FBS (final concentration: 5%), insulin (Sigma-Aldrich Japan K. K., final concentration: 10 μg/mL), isobutyl methyl xanthine (Aldrich K. K., final concentration: 0.5 mM) and dexamethazone (final concentration: 1 μM) were added so as to be at the final concentrations indicated in the parentheses. The cells were divided in the following 2 groups and were cultured for 4 days; 1) in the presence of 0.01% (v/v) dimethylsulfoxide, and 2) in the presence of 0.01% (v/v) dimethylsulfoxide in which was dissolved 1 mM of the test substance (final concentration of 0.1 μM). Then, the medium was further replaced with a maintenance medium in which inactivated […] and insulin were added to the base medium so as to be at final concentrations of 5% and 100 ng/mL, respectively, and the cells were cultured for 2 days.
The inhibitory activity of the test compound against cell differentiation was assayed by using uptake of [2-^14C] acetic acid into the cultured cells as an indicator. […] Then the cells were further incubated with the newly prepared medium for 1 hr. After washing the well with PBS (−), the cells were dried. To these wells, 100 μL/well of a scintillation cocktail (Hewlett-Packard Co., MICROSCINT-20 PACKARD) were added and their radioactivities were determined with a Packard TopCont microplate Scintillation Counter (Hewlett-Packard Co., PACKARD) and the uptake level of [2-^14C] acetic acid into the cultured cell was calculated.
On the basis of the calculated uptake level of [2-^14C] acetic acid into the cultured cells, the relative uptake level of [2-^14C] acetic acid in the group treated with the test compound was calculated against the uptake level of [2-^14C] acetic acid in the presence of 0.01% (v/v) dimethylsulfoxide solution described in 1) (100%).
Value=Uptake Level (cpm) of [2-^14C] Acetic Acid in the Presence of the Test Substance
Control=Uptake Level (cpm) of [2-^14C] Acetic Acid in the Control Group (0.01% dimethylsulfoxide)
Uptake Rate (%) of [2-^14C] Acetic Acid=100×[Value]/[Control]

leptin production = assay: Enhancing activity for leptin production in adipocytes (ELISA); assay type: cell-based, rat; details: Rattus norvegicus, Adipocyte, 24 h, leptin concentration as % of control group, read-out: Facilitating activity to produce leptin; for activity at 0.1 µM: 100 nm
Protocol: Hanks solution was used for collection of adipose tissue. The Hanks solution was prepared by filtration of a mixed solution (pH: 7.5) of 120 mM NaCl, 4.8 mM KCl, 0.74 mM MgSO4, 0.30 mM Na2HPO4, 0.40 mM KH2PO4, 20 mM HEPES, 0.05% (w/v) glucose, 2% (w/v) BSA (Sigma-Aldrich Japan K. K., Cat. No. A7888), 0.95 mM CaCl2, 4.17 mM NaHCO3 and 1% (v/v) penicillin-streptomycin liquid (GIBCO BRL, Cat. No. 15140-122). The adipocytes were cultured in Dulbecco's modified Eagle's medium (GIBCO BRL, Cat. No. 11995-040) mixed with DMEM/F-12 (GIBCO BRL, Cat. No. 11320-033) at a ratio of 1:1, and added 0.2% (v/v) Hanks solution, 0.2 μg/L sodium selenite (GIBCO BRL, Cat. No. 13012-018), 0.002% (v/v) ethanolamine, 25 mM HEPES and 1% (v/v) penicillin-streptomycin liquid (GIBCO BRL, Cat. No. 15140-122). As many as possible of the other reagents used were special grade. In this experiment, the cells were cultured in a CO2 incubator (37° C., 95% humidity, 5% CO2).
Male Wistar Imamichi rats of 6 weeks old were sacrificed by bleeding following decapitation, and adipose tissue was removed from the epididymis and sectioned after the vessels were removed in warmed Hanks solution at 37° C. and were weighed. One (1) mL of Hanks solution containing 10 mg collagenase (Wako Pure Chemical Industries, Ltd., 034-10533) was added to the adipose tissue prepared. The solution was transferred into a tube having a volume of 50 mL, and the cells were evenly dispersed by incubation under gentle shaking at 37° C., 90 rpm, for 50 min. Then 20 mL of Hanks solution were added and filtrated through Nylon-mesh with a mesh diameter of 200 μm for removal of undigested tissue pieces. The floating adipocytes were separated from sediments and substances located in the lower layer by centrifugation at 1,000 rpm for 1 min at room temperature. The sediment and 22 mL of the low layer were pulled out with a probe, and the floating adipocytes were recovered. This procedure was repeated twice with Hanks solution and for 4 times with the culture medium. After these procedures the adipocytes were suspended in the culture medium at a volume of 60 mL per 1 g of the adipose tissue weighed previously. 100 μL of the suspended solution were plated in each well of a 96-well microplate (ASAHI TECHNO GLASS Corp.) In the group treated with the test compound, 1 μL/well of DMSO solution containing the dissolved the test compound at concentrations of 200 μM, 20 μM, 2 μM and 0.2 μM (final concentrations of the test compound: 1 μM, 100 nM, 10 nM and 1 nM, respectively) was plated in each of the well. In the control group, 1 μL/well of DMSO (final concentration: 0.1% (v/v)) was plated in each well. The plate was placed stationary in a CO2 incubator for 1 hr or longer, and the contents in the solution were equilibrated at 37° C. After they were equilibrated, the solution in each well was stirred with a magnetic stirrer in a water bath and the suspended solution maintained at 37° C. was plated into each well of the plate at 100 μL/well. After incubation of the cells for 24 hr, the suspended solution of cells was filtrated through a filter for the microplate, MultiScreen (MILLOPORE, MDV-N65). The concentration of leptin in the filtrated solution was determined with ELISA methods by using a Rat Leptin Determination Kit-IBL (Immuno-Biological Laboratories Co., Ltd., Cat. No. 17195). The facilitating activity of the compound to produce leptin was calculated from the following equation based on the concentration of leptin determined.
Facilitating Activity of the Compound to Produce Leptin (%)=(A/B)×100
A: Concentration of Leptin in the Treated Group with the Test Compound.
B: Concentration of Leptin in the Control Group.

Rat white adipocytes = assay: Inhibition of the differentiation of adipocytes (Oil Red O); assay type: cell-based; details: 100 nM test compound, 5 days, Oil Red O ABS550, control = 100%, blank = 0%, Table 3; for activity at 0.1 µM: Rattus norvegicus, Adipocyte, 120 h, read-out: Rate of Differentiation (%)
Protocol: Rat white adipocytes contained in the white adipocyte culture kit purchased from HOKUDO were used. As the medium for proliferation and for differentiation-inducing, the medium contained in the white adipocyte culture kit purchased from HOKUDO was used. The cells in the present experiment were cultured in a CO2 incubator (37° C., 95% R.H., 5% CO2).
Immediately after arrival of the purchased cells, all medium for transportation was discarded and replaced with 5 ml of proliferation medium (/25 cm^2-flask) and the cells were cultured for one day. Then, a cell suspension was prepared with proliferation medium so as to be 83,000 cells/mL, and the cell suspension was plated into a type I 96-well collagen-coated microplate (SUMITOMO BAKELITE CO., ltd.) so as to be 5,000 cells/well (60 μL/well).
On the next day, all the proliferation medium was discarded and replaced with 147 μL/well of differentiation-inducing medium. Further, 1) in the group treated with the test compound, 3 μL/well of the solution, in which a test compound (100 μM) was dissolved in DMSO solution and diluted with differentiation-inducing medium by 20 times (final concentration of the test compound: 100 nM, final concentration of DMSO solution: 0.1% (v/v)), were added to the well where the cells were plated. 2) In the control group, 3 μL/well of DMSO solution that was diluted with differentiation-inducing medium by 20 times (final concentration of DMSO: 0.1% (v/v)) were added to the well where the cells were plated. Further, 3) in the blank group, 3 μL/well of DMSO solution that was diluted with differentiation-inducing medium by 20 times (final concentration: 0.1% (v/v)), was added to the blank well.
After culturing for 5 days, all differentiation-inducing medium was discarded and replaced with 60 μL of 10% (v/v) formaldehyde solution (for fixation) in each well and the cells were kept stationary for 20 min at room temperature. After this, the fixative solution was discarded and replaced with 60 μL of 0.2% (v/v) Triton X (Sigma-Aldrich Japan K. K.) solution in each well and kept stationary for 5 min at room temperature. Then all Triton X solution was discarded and replaced with 60 μL of 60% (v/v) isopropanol solution containing dissolved Oil Red O (Sigma-Aldrich Japan K. K.) so as to be 0.3%, which was adipose tissue staining solution, and the well was left stationary for 10 min at room temperature. After the adipose tissue staining solution was discarded, the well was washed twice with 60 JIL of 60% isopropanol solution. Then, 100 μL of the DMSO solution were added to each well and stirred for 5 min at room temperature, The absorbance was measured at 550 nm (ABS550) with a multi-plate reader (LabSystems), and the stained amount with Oil Red O was determined. The measured level at ABS550 in the control group was defined as 100%, while the level at ABS550 in the blank group was defined as 0%. The differentiation rate (%) of the adipocytes treated with the test compound was calculated.

Work on `Cc1cccc(C(C)C)c1NC(=O)c1cc([N+](=O)[O-])ccc1Cl` [Example 19, N-(2-Isopropyl-6-methylphenyl)-(2-chloro-5-nitrophenyl)carboxamide] yielded an activity at 0.1 µM [1] of 64.8%.
With `O=C(O)c1ccc(NC(=O)c2cc([N+](=O)[O-])ccc2Cl)cc1` [Example 27, 4-[(2-Chloro-5-nitrophenyl)carbonylamino]benzoic Acid] the activity at 0.1 µM [1] was 66%.
`CCOC(=O)c1c[nH]nc1NC(=O)c1cc([N+](=O)[O-])ccc1Cl` [Example 71, N-(4-Ethoxycarbonylpyrazol-3-yl)-(2-chloro-5-nitrophenyl)carboxamide] was tested, and the activity at 0.1 µM [1] was 65.8%.
`CC(=O)Oc1c(C)c(C)c2c(c1C)C(=O)CC(C)(COc1ccc(NC(=O)c3cc([N+](=O)[O-])ccc3Cl)cc1)O2` (centres unmarked) [Example 91, N-[4-(6-Acetoxy-2,5,7,8-tetramethyl-4-oxochroman-2-ylmethoxy)phenyl]-(2-chloro-5-nitrophenyl)carboxamide] showed an activity at 1 µM (leptin production) of 114%, an activity at 0.1 µM (leptin production) of 110% and an activity at 0.1 µM [1] of 85.8%.
Compound `CCCCCCCCCCCCCCc1sc(NC(=O)c2cc([N+](=O)[O-])ccc2Cl)nc1-c1ccccc1` [Example 109, N-(4-Phenyl-5-tetradecylthiazol-2-yl)-(2-chloro-5-nitrophenyl)carboxamide] has an activity at 1 µM (leptin production) of 112% and an activity at 0.1 µM [1] of 64.6%.
In the case of `Cc1ccc(NS(=O)(=O)c2ccc(NC(=O)c3cc([N+](=O)[O-])ccc3Cl)cc2)cc1` [Example 144, N-[4-(4-Tolylaminosulfonyl)phenyl]-(2-chloro-5-nitrophenyl)carboxamide], the activity at 0.1 µM [1] is reported as 82.2%.
For `Nc1ccc(NC(=O)c2cc([N+](=O)[O-])ccc2Cl)cc1` [Example 180, N-(4-Aminophenyl)-(2-chloro-5-nitrophenyl)carboxamide], the “Rate of Differentiation (%)” value (Rat white adipocytes) was 59.1%.
For `CCCCCCCCN(CCCCCCCC)c1ccc(-c2ccc(NC(=O)c3cc([N+](=O)[O-])ccc3Cl)cc2)cc1` [Example 185, N-[4-[4-(N,N-Dioctylamino)phenyl]phenyl]-(2-chloro-5-nitrophenyl)carboxamide Hydrochloride], the activity at 1 µM (leptin production) was 123%, the activity at 0.01 µM (leptin production; 10 nm) was 122% and the activity at 0.1 µM (leptin production) was 132%.
For `CCCCN(C)c1ccc(-c2ccc(NC(=O)c3cc([N+](=O)[O-])ccc3Cl)cc2)cc1` [Example 210, N-[4-[4-(N-Butyl-N-methylamino)phenyl]phenyl]-(2-chloro-5-nitrophenyl)carboxamide], the activity at 0.1 µM (Rat white adipocytes) was 47.6%.
With `CCCN(C)c1ccc(-c2ccc(NC(=O)c3cc([N+](=O)[O-])ccc3Cl)cc2)cc1` [Example 213, N-[4-[4-(N-Methyl-N-propylamino)phenyl]phenyl]-(2-chloro-5-nitrophenyl)carboxamide] the activity at 0.1 µM (Rat white adipocytes) was 47.4%.
Compound `CCCCCN(C)c1ccc(-c2ccc(NC(=O)c3cc([N+](=O)[O-])ccc3Cl)cc2)cc1` [Example 215, N-[4-[4-(N-Methyl-N-pentylamino)phenyl]phenyl]-(2-chloro-5-nitrophenyl)carboxamide] has an activity at 0.1 µM (Rat white adipocytes) of 45.2%.
For `O=C(Nc1ccc(C(O)(C(F)(F)F)C(F)(F)F)cc1)c1cc([N+](=O)[O-])ccc1Cl` [Example 237, N-[4-(2,2,2-Trifluoro-1-hydroxy-1-trifluoromethylethyl)phenyl]-(2-chloro-5-nitrophenyl)carboxamide], the activity at 0.1 µM (Rat white adipocytes) was 46.9%.
